Drawing on ChEMBL document CHEMBL1127166, “The analgesic effect of epibatidine and isomers” (1993), this text covers Max possible effect and ED50 for seven compounds.

Molecules are shown by their SMILES.

What all share (assay type): functional
For assay [1], the system named is Mus musculus. Nature of the assay: Tested for the maximum possible analgesic effect along with saline after 30 min at subcutaneous dosage of 10000 ug/kg.
Assay [2] relates to Mus musculus. Nature of the assay: Tested for the maximum possible analgesic effect along with saline after 15 min at subcutaneous dosage of 10000 ug/kg.
Assay [3] deals with Mus musculus. Nature of the assay: Tested for the maximum possible analgesic effect along with naloxone (10 mg/kg) after 5 min at subcutaneous dosage of 10000 ug/kg.
In assay [4] the test system is Mus musculus. Nature of the assay: Tested for the maximum possible analgesic effect along with saline after 5 min at subcutaneous dosage of 10000 ug/kg.
The test system of assay [5] is Mus musculus. Nature of the assay: Tested for the maximum possible analgesic effect along with naloxone (10 mg/kg) after 30 min at subcutaneous dosage of 10000 ug/kg.
Assay [6] has as its system Mus musculus. Nature of the assay: Tested for the maximum possible analgesic effect along with naloxone (10 mg/kg) after 15 min at subcutaneous dosage of 10000 ug/kg.
Assay [7] has as its system Mus musculus. Nature of the assay: Tested for the maximum possible analgesic effect along with saline after 30 min at subcutaneous dosage of 1000-10000 ug/kg.
The subject of assay [8] is Mus musculus. Nature of the assay: Tested for the maximum possible analgesic effect along with naloxone (10 mg/kg) after 30 min at subcutaneous dosage of 10 ug/kg.
Assay [9] has as its system Mus musculus. Nature of the assay: Tested for the analgesic effect in the mouse tail-flick assay at 5 min after subcutaneous injection at dosage of 5-50 ug/kg.
The subject of assay [10] is Mus musculus. Nature of the assay: Tested for the maximum possible analgesic effect along with naloxone (10 mg/kg) after 5 min at subcutaneous dosage of 10 ug/kg.
In assay [11] the test system is Mus musculus. Nature of the assay: Tested for the maximum possible analgesic effect along with saline after 5 min at subcutaneous dosage of 10 ug/kg.
Assay [12] concerns Mus musculus. Nature of the assay: Tested for the maximum possible analgesic effect along with saline after 15 min at subcutaneous dosage of 10 ug/kg.
The subject of assay [13] is Mus musculus. Nature of the assay: Tested for the maximum possible analgesic effect of epibatidine after 5 min in mouse tail-flick assay at subcutaneous dosage of 10 ug/kg.
Assay [14] deals with Mus musculus. Nature of the assay: Tested for the maximum possible analgesic effect along with saline after 30 min at subcutaneous dosage of 10 ug/kg.
For assay [15], the system named is Mus musculus. Nature of the assay: Tested for the maximum possible analgesic effect of epibatidine after 15 min in mouse tail-flick assay at subcutaneous dosage of 10 ug/kg.
In assay [16] the test system is Mus musculus. Nature of the assay: Tested for the maximum possible analgesic effect of epibatidine after 30 min in mouse tail-flick assay at subcutaneous dosage of 10 ug/kg.
The test system of assay [17] is Mus musculus. Nature of the assay: Tested for the maximum possible analgesic effect along with naloxone (10 mg/kg) after 15 min at subcutaneous dosage of 10 ug/kg.
In assay [18] the test system is Mus musculus. Nature of the assay: Tested for the maximum possible analgesic effect of epibatidine after 15 min in mouse tail-flick assay at subcutaneous dosage of 1000 ug/kg.
The test system of assay [19] is Mus musculus. Nature of the assay: Tested for the analgesic effect in the mouse tail-flick assay at 5 min after subcutaneous injection at dosage of 50-1000 ug/kg. As to conditions: sc.
The subject of assay [20] is Mus musculus. Nature of the assay: Tested for the maximum possible analgesic effect of epibatidine after 30 min in mouse tail-flick assay at subcutaneous dosage of 1000 ug/kg.
Assay [21] relates to Mus musculus. Nature of the assay: Tested for the maximum possible analgesic effect of epibatidine after 5 min in mouse tail-flick assay at subcutaneous dosage of 1000 ug/kg.
Assay [22] deals with Mus musculus. Nature of the assay: Tested for maximum possible of analgesic effect of epibatidine after 5 min in mouse tail-flick assay at subcutaneous dosage of 10 ug/kg.
Assay [23] concerns Mus musculus. Nature of the assay: Tested for the analgesic effect in the mouse tail-flick assay at 5 min after subcutaneous injection at dosage of 1000 ug/kg. As to conditions: sc.
In assay [24] the test system is Mus musculus. Nature of the assay: Tested for the maximum possible analgesic effect of epibatidine at 15 min in mouse tail-flick assay after subcutaneous dosage of 1000 ug/kg.
In assay [25] the test system is Mus musculus. Nature of the assay: Tested for the analgesic effect in the mouse tail-flick assay at 5 min after subcutaneous injection at dosage of 10-50 ug/kg. The settings on record: sc.

In the case of `CN1CC[C@]23c4c5ccc(O)c4O[C@H]2[C@@H](O)C=C[C@H]3[C@H]1C5.CN1CC[C@]23c4c5ccc(O)c4O[C@H]2[C@@H](O)C=C[C@H]3[C@H]1C5.O=S(=O)(O)O`, the Max possible effect in assay [1] amounted to 94%; in assay [2], 51%; in [3] it was 0%; in assay [4], 7%; in assay [5], 4%; in assay [6], 3%. In addition, the Max possible effect in [7] stood at 4524%.

As to `Clc1ccc(C2CC3CCC2N3)cn1` (stereo in doubt; d-1) [EPIBATIDINE], the Max possible effect in assay [8] worked out at 0%; in [10] it was 77%; in assay [11], 86%; in assay [12] it was 48%; in [13] it was 89%; in assay [14], 4%. Also, the results for the Max possible effect in assay [15], in assay [16] and in assay [17] were 32%, 3% and 49%, respectively. In addition, in assay [9] (Mus musculus, Tail, sc, 5 min, read-out: ED50), the ED50 came out at 7 µg/kg.

Consider `Clc1ccc(C2CC3CCC2N3)cn1` (configuration not stated) [EPIBATIDINE], for which the Max possible effect in [18] was 10%; in assay [20], 11%; in [21], 5%. For the same compound, the ED50 in [19] was over 1000 µg/kg.

In [9], `Clc1ccc(C2CC3CCC2N3)cn1` (stereo in doubt; l-1) [EPIBATIDINE] came in with an ED50 of 9 µg/kg. Further, the Max possible effect in [15] came out at 46%; in [22], 58%; in [16] it was 1%.

With `CC(=O)N1C2CCC1C(c1ccc(Cl)nc1)C2` (configuration not stated), the ED50 in assay [23] was over 1000 µg/kg. Moreover, the values for the Max possible effect in assay [24], in [20] and in assay [21] were 3%, 0% and 4%, respectively.

Take `CN1C2CCC1C(c1ccc(Cl)nc1)C2` (configuration not stated): in [25], the ED50 is 9 µg/kg. For the same compound, the results for the Max possible effect in [13], in assay [15] and in assay [16] were 64%, 16% and 8%, respectively.

With `Clc1ccc(C2CC3CCC2N3)cn1` (racemic) [EPIBATIDINE], the ED50 in assay [9] was 10 µg/kg. Further, the Max possible effect is on record as 47% in [13], 23% in assay [15] and 5% in assay [16].
